Assay results as given in patent publication US11155582B2, “Antiviral peptide and use thereof” (priority 2018, dated 2021).
Values joined by “and” are separate entries in the source; they are usually repeats but may differ in a detail not shown here. Identical values can stand only once. Where no end group is shown, it is not given here.

Tests used:
VSV [1] = assay type: cell-based, Vesicular stomatitis virus (VSV)
VSV [2] = assay type: cell-based, Vesicular stomatitis virus (VSV); remark: listed apart in the source

| Substance | Amount of virus in culture supernatant (VSV [1]) | observation field occupied by a monolayer of living cells (VSV [2]) [%] |
| --- | --- | --- |
| MAIVGIVLLIVVTFLAIKTKKRTLRKNDRKKR-NH2 [Sample 1] | 4.4 Log10 TCID 50/mL and 5 Log10 TCID 50/mL | – |
| FFFIIGLIIGLFLVLRVGIHLKKRTLRKNDRKKR-NH2 [Sample 2] | 4.7 Log10 TCID 50/mL and 3.5 Log10 TCID 50/mL | – |
| VLAVIIGFVILMFLIKLIGVLKKRTLRKNDRKKR-NH2 [Sample 3] | 4.7 Log10 TCID 50/mL and 4.5 Log10 TCID 50/mL | ≥ 90 |
